Measured values from US10294202B2, “Pyrrolidinones as herbicides” (FMC Corporation, priority 2013, dated 2019).

Assays:
[1] = tested on: crabgrass, large; experiment: Test A pre-/postemergence herbicide test; format: in vivo, Digitaria sanguinalis
In short: (§1)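 Scoring was visual, relative to untreated controls, on a 0–100 scale after about 10 greenhouse days. Preemergence treatment used a directed soil spray over seeded loam/sand; postemergence treatment targeted one- to two-leaf plants of 2–10 cm.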

[2] = tested on: morningglory; experiment: Test A pre-/postemergence herbicide test; format: in vivo, Ipomoea spp.
In short: as §1

[3] = tested on: barnyardgrass; experiment: Test C flooded paddy test; format: in vivo, Echinochloa crus-galli; settings: Flood
In short: (§2)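 Ratings reflect visual comparison with controls on a 0–100 scale, where 100 is complete control. Compound is dosed into standing paddy water 3 cm deep over 2-leaf-stage plants, kept in the greenhouse 13 to 15 days.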

[4] = tested on: velvetleaf; experiment: Test A pre-/postemergence herbicide test; format: in vivo, Abutilon theophrasti
In short: as §1

[5] = tested on: kochia; experiment: Test C pre-/postemergence herbicide test; format: in vivo, Kochia scoparia; settings: Preemergence; for Kochia plant response rating: 31 g ai/ha, scale 0 to 100, 0 is no effect and 100 is complete control
Source text: Seeds of plant species selected from blackgrass (Alopecurus myosuroides), ryegrass, Italian (Italian ryegrass, Lolium multiflorum), wheat (winter wheat, Triticum aestivum), galium (catchweed bedstraw, Galium aparine), corn (Zea mays), crabgrass, large (large crabgrass, Digitaria sanguinalis), foxtail, giant (giant foxtail, Setaria faberii), johnsongrass (Sorghum halepense), lambsquarters (Chenopodium album), morningglory (Ipomoea coccinea), nutsedge, yellow (yellow nutsedge, Cyperus esculentus), pigweed (Amaranthus retroflexus), ragweed (common ragweed, Ambrosia elatior), soybean (Glycine max), barnyardgrass (Echinochloa crus-galli), oilseed rape (Brassica napus), waterhemp (common waterhemp, Amaranthus rudis), kochia (Kochia scoparia), oat, wild (wild oat, Avena fatua), surinam grass (Brachiaria decumbens), foxtail, green (green foxtail, Setaria viridis), goosegrass (Eleusine indica), bromegrass, downy (downy bromegrass, Bromus tectorum), nightshade (eastern black nightshade, Solanum ptycanthum), cocklebur (common cocklebur, Xanthium strumarium), cupgrass, woolly (woolly cupgrass, Eriochloa villosa), bermudagrass (Cynodon dactylon), sunflower, (common oilseed sunflower, Helianthus annuus), Russian thistle (Salsola kali) and velvetleaf (Abutilon theophrasti) were planted into a blend of loam soil and sand and treated preemergence with test chemicals formulated in a non-phytotoxic solvent mixture which included a surfactant. At the same time, plants selected from these crop and weed species and also barley (winter barley, Hordeum vulgare), […]), chickweed (common chickweed, Stellaria media), deadnettle (henbit deadnettle, Lamium amplexicaule), and canarygrass (littleseed canarygrass, Phalaris minor) were planted in pots containing Redi-Earth® planting medium (Scotts Company, 14111 Scottslawn Road, Marysville, Ohio 43041) comprising spaghnum peat moss, vermiculite, wetting agent and starter nutrients and treated with postemergence applications of test chemicals formulated in the same manner. Plants ranged in height from 2 to 18 cm (1- to 4-leaf stage) for postemergence treatments. Treated plants and controls were maintained in a greenhouse for 13 to 15 days, after which time all species were compared to controls and visually evaluated. Plant response ratings, summarized in Table C, are based on a scale of 0 to 100 where 0 is no effect and 100 is complete control. A dash (-) response means no test result.

[6] = tested on: ducksalad; experiment: Test C flooded paddy test; format: in vivo, Heteranthera limosa; settings: Flood
In short: as §2

[7] = tested on: sedge, umbrella; experiment: Test C flooded paddy test; format: in vivo, Cyperus difformis; settings: Flood
In short: as §2

[8] = Postemergence, 125 g ai/ha, 0 to 100 scale, 0 no effect, 100 complete control
[9] = Postemergence, 500 g ai/ha, 0 to 100 scale (0 no effect, 100 complete control)
[10] = Preemergence, 125 g ai/ha, visual rating on 0 to 100 scale (0 no effect, 100 complete control)
[11] = preemergence, 500 g ai/ha, 0 to 100 scale
[12] = 31 g ai/ha, scale of 0 to 100 where 0 is no effect and 100 is complete control, 13 to 15 days
[13] = 62 g ai/ha, scale of 0 to 100 where 0 is no effect and 100 is complete control, 13 to 15 days
[14] = 125 g ai/ha, scale of 0 to 100 where 0 is no effect and 100 is complete control, 13 to 15 days
[15] = 125 g ai/ha, scale 0 to 100 (0 no effect, 100 complete control)
[16] = Postemergence, 1000 g ai/ha, 0 to 100 scale (0 no effect, 100 complete control)
[17] = Preemergence, 1000 g ai/ha, visual rating on 0 to 100 scale (0 no effect, 100 complete control), approx. 10 days
[18] = Preemergence, 125 g ai/ha, 0 to 100 scale where 0 is no effect and 100 is complete control
[19] = preemergence, 500 g ai/ha, 0 to 100 scale, 0 is no effect and 100 is complete control
[20] = 250 g ai/ha, scale of 0 to 100 where 0 is no effect and 100 is complete control, 13 to 15 days

Row | Structure (SMILES) | Plant response rating, Crabgrass, Large [1, 8] | Plant response rating, Crabgrass, Large [1, 9] | Crabgrass, Large plant response rating [1, 10] | Plant response rating, Crabgrass, Large [1, 11] | Plant response rating, Morningglory [2, 8] | Plant response rating, Morningglory [2, 9] | Morningglory plant response rating [2, 10] | Plant response rating, Morningglory [2, 11] | Plant response rating, Velvetleaf [4, 8] | Plant response rating, Velvetleaf [4, 9] | Velvetleaf plant response rating [4, 10] | Plant response rating, Velvetleaf [4, 11] | Plant response rating, Kochia ([5]; 62 g ai/ha, scale 0 to 100) | Plant response rating, Kochia [5, 15] | other results
1 | O=C1NCC(c2ccc(F)cc2)C1C(=O)Nc1ccccc1F (racemic) [Compound 16] | 90 | 90 | 90 | 90 | 0 | 10 | 0 | 0 | 0 | 0 | 0 | 0 | 0 | 0 | Plant response rating, Barnyardgrass [3, 12]: 0; Plant response rating, Barnyardgrass [3, 13]: 0; Plant response rating, Barnyardgrass [3, 14]: 0; Plant response rating, Barnyardgrass ([3]; 250 g ai/ha, scale 0 to 100): 15; Plant response rating, Ducksalad [6, 12]: 0; Plant response rating, Ducksalad [6, 13]: 40; Plant response rating, Ducksalad [6, 14]: 85; Plant response rating, Ducksalad ([6]; 250 g ai/ha, scale 0 to 100): 100; Plant response rating, Sedge, Umbrella [7, 12]: 0; Plant response rating, Sedge, Umbrella [7, 13]: 0; Plant response rating, Sedge, Umbrella [7, 14]: 0; Plant response rating, Sedge, Umbrella ([7]; 250 g ai/ha, scale 0 to 100): 0
2 | O=C1NCC(c2cc(F)c(F)c(F)c2)C1C(=O)Nc1ccccc1C(F)(F)F (racemic) [Compound 33] |  |  |  |  |  |  |  |  |  |  |  |  | 0 | 0 | Plant response rating, Crabgrass, Large [1, 16]: 90; Plant response rating, Crabgrass, Large [1, 17]: 90; Plant response rating, Morningglory [2, 16]: 20; Plant response rating, Velvetleaf [4, 16]: 20; Plant response rating, Velvetleaf [4, 17]: 0
3 | Cc1ccccc1NC(=O)C1C(=O)NCC1c1cc(F)c(F)c(F)c1 (racemic) [Compound 35] |  |  |  |  |  |  |  |  |  |  |  |  | 0 | 5 | Plant response rating, Crabgrass, Large [1, 16]: 90; Plant response rating, Crabgrass, Large [1, 17]: 90; Plant response rating, Morningglory [2, 16]: 0; Plant response rating, Morningglory [2, 17]: 0; Plant response rating, Velvetleaf [4, 16]: 0; Plant response rating, Velvetleaf [4, 17]: 0
4 | O=C1NCC(c2ccc(C(F)(F)F)nc2)C1C(=O)Nc1cccc(F)c1F (racemic) [Compound 263] |  | 90 |  |  |  | 60 |  |  |  |  |  |  |  |  | Plant response rating, Crabgrass, Large ([1]; Postemergence, 125 g ai/ha, 0 to 100 scale, 0 is no effect, 100 is complete control): 80; Plant response rating, Crabgrass, Large [1, 18]: 90; Plant response rating, Crabgrass, Large [1, 19]: 100; Plant response rating, Morningglory [2, 18]: 0; Plant response rating, Morningglory [2, 19]: 0; Plant response rating, Barnyardgrass [3, 12]: 20; Plant response rating, Barnyardgrass [3, 13]: 35; Plant response rating, Barnyardgrass [3, 14]: 45; Plant response rating, Barnyardgrass [3, 20]: 80; Plant response rating, Velvetleaf [4, 18]: 50; Plant response rating, Velvetleaf [4, 19]: 50; Plant response rating, Ducksalad [6, 12]: 70; Plant response rating, Ducksalad [6, 13]: 90; Plant response rating, Ducksalad [6, 14]: 100; Plant response rating, Ducksalad [6, 20]: 100; Plant response rating, Sedge, Umbrella [7, 12]: 0; Plant response rating, Sedge, Umbrella [7, 13]: 0; Plant response rating, Sedge, Umbrella [7, 14]: 0; Plant response rating, Sedge, Umbrella [7, 20]: 0
5 | O=C1NCC(c2ccc(Cl)c(F)c2)C1C(=O)Nc1ccccc1F (stereo not shown) [Compound 53] | 80 | 80 | 90 | 90 | 0 | 0 | 0 | 0 | 0 | 0 | 0 | 0 | 0 | 0 | 
6 | O=C1NCC(c2ccc(F)c(Cl)c2)C1C(=O)Nc1cccc(F)c1F (stereo not shown) [Compound 59] | 70 | 90 | 90 | 90 | 0 | 0 | 0 | 0 | 0 | 0 | 0 | 0 | 0 | 10 | 
7 | O=C1NCC(c2ccc3c(c2)OC(F)(F)O3)C1C(=O)Nc1cccc(F)c1F (stereo not shown) [Compound 62] | 80 | 90 | 90 | 90 | 0 | 0 | 0 | 0 | 0 | 0 | 0 | 0 | 0 | 15 | 
8 | O=C1NCC(c2cccc(Br)c2)C1C(=O)Nc1cccc(F)c1F (stereo not shown) [Compound 64] | 80 | 80 | 80 | 90 | 0 | 0 | 0 | 0 | 0 | 30 | 0 | 0 | 0 | 20 | 
9 | O=C1NCC(c2cccc(Br)c2)C1C(=O)Nc1ccccc1F (stereo not shown) [Compound 66] | 80 | 80 | 80 | 90 | 0 | 0 | 0 | 0 | 0 | 0 | 0 | 0 | 0 | 10 | Kochia plant response rating [5]: 0
10 | O=C1NCC(c2cccc(OC(F)(F)F)c2)C1C(=O)Nc1cccc(F)c1F (stereo not shown) [Compound 68] | 90 | 90 | 90 | 90 | 0 | 0 | 0 | 0 | 20 | 20 | 0 | 0 | 0 | 0 | Kochia plant response rating [5]: 0
